Test results taken from patent US10570116B2, “1,4-dicarbonyl-piperidyl derivatives” (Merck Patent GmbH, priority 2015, dated 2020).

Assays:
[1] = molecular target: TNKS1 (Homo sapiens (Human), UniProt O95271); test: biochemical; format: biochemical; conditions: GST-tagged Tnks-1 (1023-1327 aa); read-out: IC50 [M] TNKS1 ELISA
[2] = molecular target: TNKS2 (Homo sapiens (Human), UniProt Q9H2K2); test: biochemical; format: biochemical; conditions: GST-tagged Tnks-2 (873-1166 aa); read-out: IC50 [M] TNKS2 ELISA
[3] = test system: Tankyrases; test: Measurement of cellular inhibition of Tankyrase (Axin2 level, Luminex based assay, DLD1 cells); format: cell-based; conditions: increase of Axin2 level, 24 hours, read-out: EC50 [M] TNKS cellular assay
[4] = molecular target: PARP-1 (Homo sapiens (Human), UniProt P09874); test: Biochemical activity testing of PARP-1: autoparsylation assay (HTRF); conditions: His-tagged Parp-1, autoparsylation HTRF
Chain of PARP-1 (P09874 whole entry): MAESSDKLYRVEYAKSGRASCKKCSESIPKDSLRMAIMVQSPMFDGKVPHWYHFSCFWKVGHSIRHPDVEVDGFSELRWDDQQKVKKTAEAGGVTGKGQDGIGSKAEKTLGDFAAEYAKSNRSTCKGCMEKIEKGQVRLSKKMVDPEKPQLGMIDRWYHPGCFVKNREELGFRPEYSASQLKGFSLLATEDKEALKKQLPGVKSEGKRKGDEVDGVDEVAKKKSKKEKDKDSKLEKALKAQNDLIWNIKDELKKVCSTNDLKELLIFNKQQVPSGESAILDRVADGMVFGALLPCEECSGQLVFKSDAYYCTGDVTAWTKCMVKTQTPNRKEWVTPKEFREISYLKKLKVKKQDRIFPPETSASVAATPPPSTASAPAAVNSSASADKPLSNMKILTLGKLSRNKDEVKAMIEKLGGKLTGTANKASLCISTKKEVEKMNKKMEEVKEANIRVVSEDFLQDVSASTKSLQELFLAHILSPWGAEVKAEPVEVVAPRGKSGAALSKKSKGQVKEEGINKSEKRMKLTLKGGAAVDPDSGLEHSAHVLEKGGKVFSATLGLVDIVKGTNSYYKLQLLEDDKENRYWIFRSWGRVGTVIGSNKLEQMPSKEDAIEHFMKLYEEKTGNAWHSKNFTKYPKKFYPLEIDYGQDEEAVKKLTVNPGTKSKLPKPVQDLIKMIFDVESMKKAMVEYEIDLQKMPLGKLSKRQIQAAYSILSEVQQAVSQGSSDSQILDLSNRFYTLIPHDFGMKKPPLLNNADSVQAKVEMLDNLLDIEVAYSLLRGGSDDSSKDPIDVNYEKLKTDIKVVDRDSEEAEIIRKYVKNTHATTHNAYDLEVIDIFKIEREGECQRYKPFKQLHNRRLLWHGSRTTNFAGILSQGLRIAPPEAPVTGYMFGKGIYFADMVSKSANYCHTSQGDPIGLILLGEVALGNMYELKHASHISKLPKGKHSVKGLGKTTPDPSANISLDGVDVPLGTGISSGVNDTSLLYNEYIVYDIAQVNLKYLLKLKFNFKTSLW

| SMILES | IC50 [1] [M] | IC50 [2] [M] | EC50 [3] [M] | IC50 [4] [nM] |
| --- | --- | --- | --- | --- |
| Cn1cc(C(=O)C2CCN(C(=O)CC(C)(C)Cc3nc4c(ccn4C)c(=O)[nH]3)CC2)cn1 [Compound C17, 2-{2,2-Dimethyl-4-[4-(1-methyl-1H-pyrazole-4-carbonyl)-piperidin-1-yl]-4-oxo-butyl}-7-methyl-3,7-dihydro-pyrrolo[2,3-d]pyrimidin-4-one] | 4.7e-10 | 3.3e-10 | 6.9e-09 | > 30000 |
| Cn1cc(C(=O)C2CCN(C(=O)CC(C)(C)Cc3cc4ccccc4c(=O)[nH]3)CC2)cn1 [Compound C49, 3-{2,2-Dimethyl-4-[4-(1-methyl-1H-pyrazole-4-carbonyl)-piperidin-1-yl]-4-oxo-butyl}-2H-isoquinolin-1-one] | 3e-10 | 2.1e-10 | 1.3e-09 |  |
| CC(C)n1cc(C(=O)C2CCN(C(=O)CC(C)(C)Cc3nc4c(ccn4C)c(=O)[nH]3)CC2)cn1 [Compound C19, 2-{4-[4-(1-Isopropyl-1H-pyrazole-4-carbonyl)-piperidin-1-yl]-2,2-dimethyl-4-oxo-butyl}-7-methyl-3,7-dihydro-pyrrolo[2,3-d]pyrimidin-4-one] | 1.3e-09 | 5.8e-10 | 9.3e-09 |  |
| COC(=O)c1cccc(C(=O)C2CCN(C(=O)CC(C)(C)Cc3nc4ccccc4c(=O)[nH]3)CC2)c1 [Compound C34, 3-{1-[3,3-Dimethyl-4-(4-oxo-3,4-dihydro-quinazolin-2-yl)-butyryl]-piperidine-4-carbonyl}-benzoic Acid Methyl Ester] | 4.8e-10 | 5e-10 | 9.9e-09 |  |
| COC(=O)c1ccc(C(=O)C2CCN(C(=O)CC(C)(C)Cc3nc4ccccc4c(=O)[nH]3)CC2)cc1 [Compound C32, 4-{1-[3,3-Dimethyl-4-(4-oxo-3,4-dihydro-quinazolin-2-yl)-butyryl]-piperidine-4-carbonyl}-benzoic Acid Methyl Ester] | 6.8e-10 | 5.6e-10 | 1.1e-07 |  |
| COc1ccc(C(=O)C2CCN(C(=O)COCc3nc4ccccc4c(=O)[nH]3)CC2)cc1 [Compound C23, 2-{2-[4-(4-Methoxy-benzoyl)-piperidin-1-yl]-2-oxo-ethoxymethyl}-3H-quinazolin-4-one] | 6.3e-09 | 2.1e-09 | 2.6e-08 |  |
| CC(C)(CC(=O)N1CCC(C(=O)c2ccc(C(=O)O)cc2)CC1)Cc1cc2ccccc2c(=O)[nH]1 [Compound C52, 4-{1-[3,3-Dimethyl-4-(1-oxo-1,2-dihydro-isoquinolin-3-yl)-butyryl]-piperidine-4-carbonyl}-benzoic Acid] | 3.3e-10 | 2.5e-10 | 8e-08 |  |
| C[C@H](CC(=O)N1CCC(C(=O)c2cnn(C)c2)CC1)Cc1cc2ccccc2c(=O)[nH]1 [Compound C50, 3-{(S)-2-Methyl-4-[4-(1-methyl-1H-pyrazole-4-carbonyl)-piperidin-1-yl]-4-oxo-butyl}-2H-isoquinolin-1-one] | 4.4e-10 | 2.4e-10 | 6.8e-10 |  |
| COC(=O)c1ccc(C(=O)C2CCN(C(=O)CC(C)(C)Cc3nc4ccccc4c(=O)[nH]3)CC2)cc1C [Compound C38, 4-{1-[3,3-Dimethyl-4-(4-oxo-3,4-dihydro-quinazolin-2-yl)-butyryl]-piperidine-4-carbonyl}-2-methyl-benzoic Acid Methyl Ester] | 5.8e-10 | 3.2e-10 | 9.9e-10 |  |
| COc1ncc(C(=O)C2CCN(C(=O)CC(C)(C)Cc3nc4c(cnn4C)c(=O)[nH]3)CC2)cc1C [Compound C22, 6-{4-[4-(6-Methoxy-5-methyl-pyridine-3-carbonyl)-piperidin-1-yl]-2,2-dimethyl-4-oxo-butyl}-1-methyl-1,5-dihydro-pyrazolo[3,4-d]pyrimidin-4-one] | 2.2e-09 | 1.8e-09 | 7.9e-09 | > 30000 |
| Cc1cc(C(=O)C2CCN(C(=O)CC(C)(C)Cc3nc4ccccc4c(=O)[nH]3)CC2)ccc1C(=O)O [Compound C39, 4-{1-[3,3-Dimethyl-4-(4-oxo-3,4-dihydro-quinazolin-2-yl)-butyryl]-piperidine-4-carbonyl}-2-methyl-benzoic Acid] | 4.3e-10 | 6.1e-10 | 1.3e-07 |  |
| COc1ccc(C(=O)C2CCN(C(=O)CC(C)(C)Cc3nc4c(ccn4C)c(=O)[nH]3)CC2)cn1 [Compound C16, 2-{4-[4-(6-Methoxy-pyridine-3-carbonyl)-piperidin-1-yl]-2,2-dimethyl-4-oxo-butyl}-7-methyl-3,7-dihydro-pyrrolo[2,3-d]pyrimidin-4-one] | 6.1e-10 | 4.1e-10 | 4.1e-09 |  |
| Cn1cc(C(=O)C2CCN(C(=O)CC3(Cc4nc5ccccc5c(=O)[nH]4)CC3)CC2)cn1 [Compound C12, 2-(1-{2-[4-(1-Methyl-1H-pyrazole-4-carbonyl)-piperidin-1-yl]-2-oxo-ethyl}-cyclopropylmethyl)-3H-quinazolin-4-one] | 2.2e-09 | 1e-09 | 2.3e-08 |  |
| Cc1cc(F)cc2c(=O)[nH]c(C[C@H](C)CC(=O)N3CCC(C(=O)c4cccc(C(=O)O)c4)CC3)nc12 [Compound C47, 3-{1-[(S)-4-(6-Fluoro-8-methyl-4-oxo-3,4-dihydro-quinazolin-2-yl)-3-methyl-butyryl]-piperidine-4-carbonyl}-benzoic Acid] | 3.5e-10 | 2.2e-10 | 3e-09 |  |
| CN(CCc1nc2ccccc2c(=O)[nH]1)C(=O)N1CCC(C(=O)c2cnn(C)c2)CC1 [Compound C31, 4-(1-Methyl-1H-pyrazole-4-carbonyl)-piperidine-1-carboxylic Acid methyl-[2-(4-oxo-3,4-dihydro-quinazolin-2-yl)-ethyl]-amide] | 3e-09 | 2.2e-09 | 2.3e-08 |  |
| COc1ccc(C(=O)C2CCN(C(=O)COCc3nc4c(F)cc(F)cc4c(=O)[nH]3)CC2)cn1 [Compound C28, 6,8-Difluoro-2-{2-[4-(6-methoxy-pyridine-3-carbonyl)-piperidin-1-yl]-2-oxo-ethoxymethyl}-3H-quinazolin-4-one] | 3.4e-08 | 1.2e-08 | 1e-07 |  |
| CC(C)(CC(=O)N1CCC(C(=O)c2ccc(C(=O)O)cc2)CC1)Cc1nc2ccccc2c(=O)[nH]1 [Compound C33, 4-{1-[3,3-Dimethyl-4-(4-oxo-3,4-dihydro-quinazolin-2-yl)-butyryl]-piperidine-4-carbonyl}-benzoic Acid] | 5.1e-10 | 4.5e-10 | 1.5e-07 |  |
| Cn1cc(C(=O)C2CCN(C(=O)CC(C)(C)Cc3nc4ccccc4c(=O)[nH]3)CC2)cn1 [Compound C1, 2-{2,2-Dimethyl-4-[4-(1-methyl-1H-pyrazole-4-carbonyl)-piperidin-1-yl]-4-oxo-butyl}-3H-quinazolin-4-one] | 5.7e-10 | 3.7e-10 | 4.5e-09 |  |
| CC(C)(CC(=O)N1CCC(C(=O)c2cccc(C(=O)O)c2)CC1)Cc1cc2ccccc2c(=O)[nH]1 [Compound C53, 3-{1-[3,3-Dimethyl-4-(1-oxo-1,2-dihydro-isoquinolin-3-yl)-butyryl]-piperidine-4-carbonyl}-benzoic Acid] | 1.1e-09 | 6.9e-10 | 8.7e-07 |  |
